# Assay results as given in patent publication US20170253607A1, “LONG-ACTING HIV PROTEASE INHIBITOR” (Shionogi & Co., Ltd., priority 2014, published 2017).
# pIC50: −log10 of the molar value.
# Target: HIV-1 PR (Human immunodeficiency virus type 1 group M subtype B, UniProt P04585)
# Assay: HIV-protease inhibitory activity assay (FRET peptide substrate)
# Type: biochemical
# Details: Test Example 1
# In short: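 Compounds were preincubated with HIV-1 PR (0.83 ng) at room temperature in pH 4.8 NaAc buffer (0.5 M NaCl, EDTA, DTT, Tween 20), then HiLyte Fluor 488/QXL 520 FRET peptide (2 μmol/L final) was added for 60 min. Fluorescence was read at 485/535 nm, and IC50 was fitted by four-parameter logistic regression.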
row,Compound,pIC50
1,COc1ccc(S(=O)(=O)N(CC(C)C)CC(O)C(Cc2ccc(OCC3CCCN3c3ccc(C#N)cc3-c3sc4c(c3C(=O)O)CC(C)(C)CC4)cc2)NC(=O)OC2COC3(C)OCCC23)cc1 (centres unmarked) [Compound I-333],7.96
2,COc1ccc(S(=O)(=O)N(CC(C)C)CC(O)C(Cc2ccc(OCc3ccccc3-c3ccc(Cn4nc(C(=O)O)c5c4CCC(C)(C)C5)cc3)cc2)NC(=O)OC2COC3(C)OCCC23)cc1 (centres unmarked) [Compound I-213],8.75
3,COc1ccc(S(=O)(=O)N(CC(C)C)CC(O)C(Cc2ccc(N(C)Cc3nc(N4CCCC4)sc3-c3ccc(-c4sc5c(c4C(=O)O)CC(C)(C)CC5)cc3)cc2)NC(=O)OC2COC3(C)OCCC23)cc1 (centres unmarked) [Compound I-715],8.27
4,COc1ccc(S(=O)(=O)N(CC(C)C)CC(O)C(Cc2ccc(N(C)C3CCc4c(-c5sc6c(c5C(=O)O)CC(C)(C)CC6)cccc43)cc2)NC(=O)OC2COC3(C)OCCC23)cc1 (centres unmarked) [Compound I-709],8.14
5,COc1ccc(S(=O)(=O)N(CC(C)C)CC(O)C(Cc2ccc(NCc3cccnc3-c3sc4c(c3C(=O)O)CC(C)(C)CC4)cc2)NC(=O)OC2COC3(C)OCCC23)cc1 (centres unmarked) [Compound I-128],8.66
6,COc1ccc(S(=O)(=O)N(CC(C)C)CC(O)C(Cc2ccc(OCc3ccccc3-c3sc(Cl)c(-c4ccccc4)c3C(=O)O)cc2)NC(=O)OC2COC3OCCC23)cc1 (centres unmarked) [Compound I-849],9.11
7,COc1ccc(S(=O)(=O)N(CC(C)C)CC(O)C(Cc2ccc(NCc3cc(C)c(-c4sc5c(c4C(=O)O)CC(C)(C)CC5)cc3C)cc2)NC(=O)OC2COC3(C)OCCC23)cc1 (centres unmarked) [Compound I-556],8.26
8,COc1ccc(S(=O)(=O)N(CC(C)C)CC(O)C(Cc2ccc(NCc3ccccc3-c3c(C(=O)O)n(Cc4ccccc4)c4ccc(OC)cc34)cc2)NC(=O)OC2COC3(C)OCCC23)cc1 (centres unmarked) [Compound I-635],8.68
9,COc1ccc(S(=O)(=O)N(CC(C)C)CC(O)C(Cc2ccc(OCc3ccc(C#N)cc3-c3sc4c(c3C(=O)O)CC(C)(C)CC4)cc2)NC(=O)OC2COC3(C)OCCC23)cc1 (centres unmarked) [Compound I-80],8.76
10,CC1(C)CCc2sc(-c3cccnc3COc3ccc(CC(NC(=O)OC4COC5(C)OCCC45)C(O)CN(CC4CCCC4)S(=O)(=O)c4ccc5c(c4)CCO5)cc3)c(C(=O)O)c2C1 (centres unmarked) [Compound I-189],8.60
11,COc1ccc(S(=O)(=O)N(CC(C)C)CC(O)C(Cc2ccc(OC3CC(N(C)c4ccccc4-c4sc5c(c4C(=O)O)CC(C)(C)CC5)C3)cc2)NC(=O)OC2COC3(C)OCCC23)cc1 (centres unmarked) [Compound I-364],8.27
12,COc1ccc(S(=O)(=O)N(CC(C)C)CC(O)C(Cc2ccc(OCc3ccc(-c4ccc(F)cc4F)c(C(=O)O)c3)cc2)NC(=O)OC2COC3(C)OCCC23)cc1 (centres unmarked) [Compound I-152],8.94
13,COc1ccc(S(=O)(=O)N(CC(C)C)CC(O)C(Cc2ccc(N(C)Cc3ccncc3-c3sc4c(c3C(=O)O)CC(C)(C)CC4)cc2)NC(=O)OC2COC3(C)OCCC23)cc1 (centres unmarked) [Compound I-489],8.74
14,COc1ccc(S(=O)(=O)N(CC(C)C)CC(O)C(Cc2ccc(NCc3c(C)c(C)c(-c4sc5c(c4C(=O)O)CC(C)(C)CC5)c(C)c3C)cc2)NC(=O)OC2COC3(C)OCCC23)cc1 (centres unmarked) [Compound I-535],7.37
15,COC(=O)c1ccc(CNc2ccc(CC(NC(=O)OC3COC4(C)OCCC34)C(O)CN(CC(C)C)S(=O)(=O)c3ccc(OC)cc3)cc2)c(-c2sc3c(c2C(=O)O)CC(C)(C)CC3)c1 (centres unmarked) [Compound I-408],8.74
16,COc1ccc(S(=O)(=O)N(CC(C)C)CC(O)C(Cc2ccc(NCc3cc4ccccc4cc3NC(=O)c3sc4c(c3C(=O)O)CC(C)(C)CC4)cc2)NC(=O)OC2COC3(C)OCCC23)cc1 (centres unmarked) [Compound I-612],8.68
17,COc1ccc(S(=O)(=O)N(CC(C)C)CC(O)C(Cc2ccc(NCc3ccc(C=CC(=O)Nc4sc5c(c4C(=O)O)CC(C)(C)CC5)cc3)cc2)NC(=O)OC2COC3(C)OCCC23)cc1 (centres unmarked) [Compound I-444],8.29
18,COc1ccc(S(=O)(=O)N(CC(C)C)C[C@@H](O)[C@H](Cc2ccc(OCc3ccccc3-c3sc(-c4ccccc4)nc3C(=O)O)cc2)NC(=O)O[C@H]2CO[C@H]3OCC[C@H]32)cc1 [Compound I-3],8.99
19,COc1ccc(S(=O)(=O)N(CC(C)C)CC(O)C(Cc2ccc(NCC3CCCCC3C(=O)Nc3sc4c(c3C(=O)O)CC(C)(C)CC4)cc2)NC(=O)OC2COC3(C)OCCC23)cc1 (centres unmarked) [Compound I-615],8.47
20,CC(C)CN(CC(O)C(Cc1ccc(NCc2ccccc2-c2sc3c(c2C(=O)O)CC(C)(C)CC3)cc1)NC(=O)OC1COC2(C)OCCC12)S(=O)(=O)c1ccc(N)cc1 (centres unmarked) [Compound I-476],8.70
21,CC(C)CN(CC(O)C(Cc1ccc(CCc2sc3c(c2C(=O)O)CC(C)(C)CC3)cc1)NC(=O)OC1COC2(C)OCCC12)S(=O)(=O)c1ccc2ncsc2c1 (centres unmarked) [Compound I-107],8.63
22,COc1ccc(S(=O)(=O)N(CC(C)C)CC(O)C(Cc2ccc(NCc3cc(C(F)(F)F)ccc3-c3sc4c(c3C(=O)O)CC(C)(C)CC4)cc2)NC(=O)OC2COC3OCCC23)cc1 (centres unmarked) [Compound I-868],8.37

row,Compound,pIC50
1,COc1ccc(S(=O)(=O)N(CC(C)C)CC(O)C(Cc2ccc(NCc3cc(-c4ccc(-c5ccccc5)cc4)ccc3-c3sc4c(c3C(=O)O)CC(C)(C)CC4)cc2)NC(=O)OC2COC3(C)OCCC23)cc1 (centres unmarked) [Compound I-721],8.65
2,CC1(C)CCc2sc(-c3ccc(CNC(=O)OC[C@]45OCC[C@H]4[C@@H](OC(=O)N[C@@H](Cc4ccccc4)[C@H](O)CN(CC(F)F)S(=O)(=O)c4ccc6ncsc6c4)CO5)cc3)c(C(=O)O)c2C1 [Compound I-32],8.86
3,COc1ccc(S(=O)(=O)N(CC(C)C)CC(O)C(Cc2ccc(NCc3ccccc3-c3cnc(-c4sc5c(c4C(=O)O)CC(C)(C)CC5)nc3)cc2)NC(=O)OC2COC3(C)OCCC23)cc1 (centres unmarked) [Compound I-712],8.69
4,COc1ccc(S(=O)(=O)N(CC(C)C)CC(O)C(Cc2ccc(CN(C)C3CCCCC3c3sc4c(c3C(=O)O)CC(C)(C)CC4)cc2)NC(=O)OC2COC3(C)OCCC23)cc1 (centres unmarked) [Compound I-341],8.72
5,COc1ccc(S(=O)(=O)N(CC(C)C)CC(O)C(Cc2ccc(NCc3ccc(-c4sc5c(c4C(=O)O)CC(C)(C)CC5)o3)cc2)NC(=O)OC2COC3(C)OCCC23)cc1 (centres unmarked) [Compound I-288],8.66
6,COc1ccc(S(=O)(=O)N(CC(C)C)C[C@@H](O)[C@H](Cc2ccc(NC[C@@H]3CCCC[C@@H]3c3sc4c(c3C(=O)O)CC(C)(C)CC4)cc2)NC(=O)O[C@H]2CO[C@@]3(C)OCC[C@@H]23)cc1 [Compound I-246],8.68
7,COc1ccc(S(=O)(=O)N(CC(C)C)CC(O)C(Cc2ccc(NCc3ncccc3C(=O)Nc3sc4c(c3C(=O)O)CC(C)(C)CC4)cc2)NC(=O)OC2COC3(C)OCCC23)cc1 (centres unmarked) [Compound I-687],8.61
8,COc1ccc(S(=O)(=O)N(CC(C)C)CC(O)C(Cc2ccc(NC3CCc4c(-c5sc6c(c5C(=O)O)CC(C)(C)CC6)cccc43)cc2)NC(=O)OC2COC3(C)OCCC23)cc1 (centres unmarked) [Compound I-697],8.54
9,COc1ccc(S(=O)(=O)N(CC(C)C)CC(O)C(Cc2ccc(NCc3ccccc3-c3ccc4cc(C(=O)O)[nH]c4c3)cc2)NC(=O)OC2COC3(C)OCCC23)cc1 (centres unmarked) [Compound I-503],8.77
10,CC1(C)CCc2sc(-c3ccc(C(F)(F)F)cc3CNc3ccc(CC(NC(=O)OC4COC5OCCC45)C(O)CN(CC4CCC4)S(=O)(=O)c4ccc5ncsc5c4)cc3)c(C(=O)O)c2C1 (centres unmarked) [Compound I-872],8.30
11,COc1ccc(S(=O)(=O)N(CC(C)C)CC(O)C(Cc2ccc(-c3sccc3C(=O)O)cc2)NC(=O)OC2COC3(C)OCCC23)cc1 (centres unmarked) [Compound I-108],8.95
12,COc1ccc(S(=O)(=O)N(CC(C)C)CC(O)C(Cc2ccc(OCc3ccccc3-c3sc4c(c3C(=O)O)CC(C)(C)CC4)cc2)NC(=O)OC2COC3(COC(=O)NCc4ccc(F)cc4)OCCC23)cc1 (centres unmarked) [Compound I-784],8.14
13,COc1ccc(S(=O)(=O)N(CC(C)C)CC(O)C(Cc2ccc(NCc3cc4c(cc3-c3sc5c(c3C(=O)O)CC(C)(C)CC5)OCC(=O)N4)cc2)NC(=O)OC2COC3(C)OCCC23)cc1 (centres unmarked) [Compound I-754],8.60
14,COc1ccc(S(=O)(=O)N(CC(C)C)CC(O)C(Cc2ccc(N(CCCc3ccccc3)Cc3ccccc3-c3sc4c(c3C(=O)O)CC(C)(C)CC4)cc2)NC(=O)OC2COC3(C)OCCC23)cc1 (centres unmarked) [Compound I-426],8.09
15,COc1ccc(S(=O)(=O)N(CC(C)C)CC(O)C(Cc2ccc(N3CCC(Oc4cccc(-c5sc6c(c5C(=O)O)CC(C)(C)CC6)c4C)C3)cc2)NC(=O)OC2COC3(C)OCCC23)cc1 (centres unmarked) [Compound I-597],8.13
16,CCCCCCCCCCCCCC(=O)Nc1ccc(CNc2ccc(CC(NC(=O)OC3COC4(C)OCCC34)C(O)CN(CC(C)C)S(=O)(=O)c3ccc(OC)cc3)cc2)c(-c2sc3c(c2C(=O)O)CC(C)(C)CC3)c1 (centres unmarked) [Compound I-763],8.51
17,CC(C)CN(CC(O)C(Cc1ccc(OCc2ccccc2-c2ccccc2C(=O)N(C)C)cc1)NC(=O)OC1COC2(C)OCCC12)S(=O)(=O)c1ccc2ncsc2c1 (centres unmarked) [Compound I-160],9.02
18,CC(C)CN(CC(O)C(Cc1ccc(OCc2cnc(C(=O)O)c(-c3ccc(F)cc3F)c2)cc1)NC(=O)OC1COC2(C)OCCC12)S(=O)(=O)c1ccc2ncsc2c1 (centres unmarked) [Compound I-157],8.91
19,COc1ccc(S(=O)(=O)N(CC(C)C)CC(O)C(Cc2ccc(CN(C)c3cccc(-c4sc5c(c4C(=O)O)CC(C)(C)CC5)c3)cc2)NC(=O)OC2COC3(C)OCCC23)cc1 (centres unmarked) [Compound I-264],8.45
20,COc1ccc(S(=O)(=O)N(CC(C)C)CC(O)C(Cc2ccc(NCc3cc(OC)cc(-c4sc5c(c4C(=O)O)CC(C)(C)CC5)c3OC)cc2)NC(=O)OC2COC3(C)OCCC23)cc1 (centres unmarked) [Compound I-553],8.72
21,COc1ccc(S(=O)(=O)N(CC(C)C)CC(O)C(Cc2ccc(N(C)Cc3cccc(C)c3C(=O)Nc3sc4c(c3C(=O)O)CC(C)(C)CC4)cc2)NC(=O)OC2COC3(C)OCCC23)cc1 (centres unmarked) [Compound I-747],8.36
22,COc1ccc(S(=O)(=O)N(CC(C)C)CC(O)C(Cc2ccc(NCc3cc(Oc4cccnc4)ccc3-c3sc4c(c3C(=O)O)CC(C)(C)CC4)cc2)NC(=O)OC2COC3(C)OCCC23)cc1 (centres unmarked) [Compound I-688],8.59
